Test results taken from US11800867B2, “Methods of repelling biting arthropods, reducing pathogen spread and treating arthropod infestation” (priority 2016, dated 2023).
Several values for one entry are separate records, joined by “and”; a condition that tells them apart may be missing. Equal entries are not always repeated.

Tests used:
Format in all cases: in vivo
[1] = tested on: termites (Reticulitermes flavipes); test: Treated filter paper knockdown (KD) and mortality trial (Example 4); conditions: Nootkatone 1% in ethanol on filter paper
Procedure: (§1) A laboratory trial was conducted to assess the efficacy of nootkatone applied to filter paper against aphids (Schizaphis gramium), dust mites (Dermatophagoides sp.), termites (Reticulitermes flavipes), deer ticks (Ixodes scapularis), biting midges (Culicoides sp.), fire ants (Solenopsis invicta), and mosquitoes (Aedes aegypti and Culex), in terms of knockdown (KD) and mortality. One concentration (1% in ethanol) of nootkatone was assessed for most species, but three concentrations (0.25%, 0.5%, and 1% in ethanol) were assessed for mosquitoes. A negative control group, consisting of filter paper treated with ethanol, was also assessed for comparison purposes for each species.
(§2) Test systems were introduced to treated filter paper, allowed to dry, and then introduced into treatment chamber, where treated arthropods were monitored at intervals up to 72 hours. If 100% mortality was obtained prior to 72 hours, the individual study was halted.
(§3) Termites—3 replicates of 10 termites were tested per treatment. One long glass tube with screened ends (to provide ventilation) was used for each test container. Test containers were placed into a larger container to prevent escapes, and were kept in darkness and at high humidity for the duration of the experiment. Filter papers were cut into strips and fitted inside the glass tubes. Two paper strips were pushed end to end to form one continuous strip, leaving a 2 mm gap running the entire length of the tube for viewing termite activity.
(§4) Readings were discontinued if treated mortality reaches […], or control mortality exceeds 20%.

[2] = tested on: fire ants (Solenopsis invicta); test: as above; conditions: Nootkatone 1% in ethanol on filter paper
Procedure: as §1, §2
Fire ants—5 replicates of 10 insects were tested per treatment. A Petri dish lid 3.54 inches (9 cm) in diameter was inverted and serve as the substrate for a 2.75 inch (7 cm) treated filter paper circle. The small Petri dish bottom was inverted over the paper and had its sides treated with Fluon® to prevent climbing and force exposure with the filter paper. The entire Petri dish was enclosed with two rubber bands.
as §4

[3] = tested on: deer ticks (Ixodes scapularis); test: as above; conditions: Nootkatone 1% in ethanol on filter paper
Procedure: as §1, §2
(§5) Deer Ticks and Dust mites—5 replicates of 10 ticks or 35 dust mites were tested per treatment. Envelopes made from treated 2.5 inch (6.35 cm) filter paper squares served as the containers. After the ticks or dust mites were placed inside the envelopes, and the openings were sealed using small binder clips.
as §4

[4] = tested on: dust mites (Dermatophagoides sp.); test: as above; conditions: Nootkatone 1% in ethanol on filter paper
Procedure: as §1, §2, §5, §4

[5] = tested on: cat fleas (Ctenocephalides felis); test: Filter paper choice test of repelling action (Example 6); conditions: for Raw data: number of fleas on Treated half of treated arena, per replicate / Raw data: number of fleas on Untreated half of treated arena, per replicate: 0.5% nootkatone in ethanol, Replicates 1-5
Procedure: (§6) An in vitro laboratory trial was required to assess the repelling action of nootkatone applied to filter paper against cat fleas (Ctenocephalides felis), deer ticks (Ixodes scapularis), bed bugs (Cimex lectularius), and termites (Reticulitermes flavipes) in a choice test design.
(§7) The sponsor provided a sample of nootkatone (98%), which was diluted in ethanol to a 0.5% concentration. The treatment was applied to filter paper at a rate of 1 mL for a 9 cm filter paper disc, and a rate of 1.9 mL for a 15 cm filter paper disc. A negative control group, consisting of untreated filter paper, was also assessed for comparison purposes.
Cat fleas: Treated and untreated filter papers were cut in half and fitted into the bottom of a 15 cm clear plastic cylinder. Treated replicates received one half treated and one half untreated filter paper; negative control replicates received only untreated filter paper.
Cat fleas: Cat fleas were introduced to the untreated side of each arena, and their distribution (on or under each paper) was recorded at +1, +4, and +24 hours post-introduction.
(§8) The number of insects in each location was converted to a percentage, for which the average and standard error were calculated across all five replicates.
(§9) Percent repellency was calculated with the following formula: % repellency=(1−((t/T)/(c/C)))*100 • Where t=number of insects on treated side of treated arena • T=total number of insects in treated arena • c=average number of insects on right side of untreated arenas • C=average total number of insects in untreated arenas

[6] = tested on: termites (Reticulitermes flavipes); test: as above
Procedure: as §6, §7
as §3, with “Termites:” for “Termites—3 replicates of 10 termites were tested per treatment.”, “Treated and untreated filter” for “Filter”, “Treated replicates received one treated and one untreated paper; negative control replicates received two untreated strips. The two” for “Two”
Termites: Termites were placed in the center of each test container and left to distribute undisturbed for 24 hours. At the end of the exposure period, the distribution (on or under each filter paper) of termites was recorded.
as §8, §9

[7] = 0.5% nootkatone in ethanol on filter paper
[8] = 0.5% nootkatone in ethanol, 24 Hours post introduction, Replicates 1-3

C=C(C)[C@@H]1CCC2=CC(=O)C[C@@H](C)[C@]2(C)C1 [Nootkatone, nootkatone] was tested, and the “Time required for greater than 90% killing” value [1] was 72 h, the “Means Affected” value ([1]; 30 minutes post introduction) was 0.0% and the “Means Dead” value ([1]; 30 minutes post introduction) was 0.0%. For the same compound, the “Means KD” value ([1]; 30 minutes post introduction) was 0.0%, the “Means Affected” value ([1]; 1 hour post introduction) was 0.0% and the “Means Dead” value ([1]; 1 hour post introduction) was 0.0%. The “Means KD” value ([1]; 1 hour post introduction) was 0.0%, the “Means Affected” value ([1]; 4 hours post introduction) was 0.0% and the “Means Dead” value ([1]; 4 hours post introduction) was 0.0%. For the same compound, the “Means KD” value ([1]; 4 hours post introduction) was 0.0%, the “Means Affected” value ([1]; 24 hours post introduction) was 83.3% and the “Means Dead” value ([1]; 24 hours post introduction) was 0.0%. For the same compound, the “Means KD” value ([1]; 24 hours post introduction) was 83.3%, the “Means Affected” value ([1]; 48 hours post introduction) was 86.7% and the “Means Dead” value ([1]; 48 hours post introduction) was 86.7%. The “Means KD” value ([1]; 48 hours post introduction) was 0.0%, the “Means Affected” value ([1]; 72 hours post introduction) was 90.0% and the “Means Dead” value ([1]; 72 hours post introduction) was 90%. For the same compound, the “Means KD” value ([1]; 72 hours post introduction) was 0.0%, the “Time required for greater than 90% killing” value [2] was 24 h and the “Means Affected” value ([2]; 30 minutes post introduction) was 0.0%. The “Means Dead” value ([2]; 30 minutes post introduction) was 0.0%, the “Means KD” value ([2]; 30 minutes post introduction) was 0.0% and the “Means Affected” value ([2]; 1 hour post introduction) was 0.0%. The “Means Dead” value ([2]; 1 hour post introduction) was 0.0%, the “Means KD” value ([2]; 1 hour post introduction) was 0.0% and the “Means Affected” value ([2]; 4 hours post introduction) was 22.0%. The “Means Dead” value ([2]; 4 hours post introduction) was 0.0%, the “Means KD” value ([2]; 4 hours post introduction) was 22.0% and the “Means Affected” value ([2]; 24 hours post introduction) was 100.0%. The “Means Dead” value ([2]; 24 hours post introduction) was 100%, the “Means KD” value ([2]; 24 hours post introduction) was 0.0% and the “Means Dead” value ([2]; 24 hours post introduction, listed as nootkatone) was 100%. For the same compound, the “Time required for greater than 90% killing” value [3] was 72 h, the “Means Affected” value ([3]; 24 hours post introduction) was 100.0% and the “Means Dead” value ([3]; 24 hours post introduction) was 36.0%. For the same compound, the “Means KD” value ([3]; 24 hours post introduction) was 62.0%, the “Means Affected” value ([3]; 48 hours post introduction) was 100.0% and the “Means Dead” value ([3]; 48 hours post introduction) was 82.0%. For the same compound, the “Means KD” value ([3]; 48 hours post introduction) was 16.0%, the “Means Affected” value ([3]; 72 hours post introduction) was 100.0% and the “Means Dead” value ([3]; 72 hours post introduction) was 100% and 98%. The “Means KD” value ([3]; 72 hours post introduction) was 0.0%, the “Time required for greater than 90% killing” value [4] was 72 h and the “Means Affected” value ([4]; 72 hours post introduction) was 100.0%. The “Means Dead” value ([4]; 72 hours post introduction) was 100%, the “Means KD” value ([4]; 72 hours post introduction) was 0.0% and the “Repellency (conclusion in words)” value [5, 7] was “some potential repellency”. The “Raw data: number of fleas on Treated half of treated arena, per replicate” value ([5]; 1 Hour post introduction) was 3 (2×) and 8 and 6 and 4, the “Raw data: number of fleas on Untreated half of treated arena, per replicate” value ([5]; 1 Hour post introduction) was 2 and 4 (2×) and 7 and 3 and the “Raw data: number of fleas on Treated half of treated arena, per replicate” value ([5]; 4 Hours post introduction) was 2 and 1 and 3 (2×) and 4. For the same compound, the “Raw data: number of fleas on Untreated half of treated arena, per replicate” value ([5]; 4 Hours post introduction) was 9 and 7 and 6 (2×) and 4, the “Raw data: number of fleas on Treated half of treated arena, per replicate” value ([5]; 24 Hours post introduction) was 0 and 2 and 4 and 1 (2×) and the “Raw data: number of fleas on Untreated half of treated arena, per replicate” value ([5]; 24 Hours post introduction) was 8 (2×) and 6 (2×) and 9. For the same compound, the “Calculated percent repellency (average ± SE)” value ([5]; nootkatone (98%) 0.5% in ethanol on filter paper, half treated, half untreated arena) was 61.9 ± 15.0%, the “Repellency (conclusion in words)” value [6, 7] was “highly repellent” and the “Raw data: number of termites on Treated strip of treated tube, per replicate” value [6, 8] was 0. For the same compound, the “Raw data: number of termites on Untreated strip of treated tube, per replicate” value [6, 8] was 10 and the “Calculated percent repellency (average ± SE)” value ([6]; nootkatone (98%) 0.5% in ethanol on filter paper strips, one treated, one untreated, 24 hours) was 100.0 ± 0.0%.
